Entries after “also recorded” stand apart in the source; their conditions may differ.
Assays:
[1] = target: T1, human Endothelin receptor type A (ETA) (Homo sapiens, UniProt P25101); assay: ETA (h) cellular antagonist effect; type: cell-based
T1 sequence (P25101 21-427): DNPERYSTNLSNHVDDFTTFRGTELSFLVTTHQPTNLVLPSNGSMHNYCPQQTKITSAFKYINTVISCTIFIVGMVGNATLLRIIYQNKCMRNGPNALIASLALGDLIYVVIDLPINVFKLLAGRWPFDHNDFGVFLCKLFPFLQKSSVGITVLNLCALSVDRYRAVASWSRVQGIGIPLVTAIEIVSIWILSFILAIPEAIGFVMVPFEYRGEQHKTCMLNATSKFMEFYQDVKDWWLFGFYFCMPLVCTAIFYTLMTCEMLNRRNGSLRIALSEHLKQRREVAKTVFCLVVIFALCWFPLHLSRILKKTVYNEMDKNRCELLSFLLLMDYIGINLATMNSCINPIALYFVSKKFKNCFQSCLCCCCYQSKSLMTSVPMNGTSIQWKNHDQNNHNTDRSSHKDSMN
Protocol: FIGS. 5A and 5B illustrate human (“h”) Endothelin receptor type A (“ETA”) inhibitory effect for A) BQ-788 and B) BQ-788-B (Compound 1), a specifically deuterated ETBR antagonist. Cellular agonist effect was calculated as a % of control response to a known reference agonist for ETA (h), and cellular antagonist effect was calculated as a % inhibition of control reference agonist response for ETA.
Determination of ETA (h) inhibitory effect for BQ-788 and BQ-788-B (COMPOUND 1). […] Cellular agonist effect was calculated as a % of control response to a known reference agonist for ETA (h), and cellular antagonist effect was calculated as a % inhibition of control reference agonist response for ETA.

[2] = tested on: plasma ET-1; assay: Plasma ET-1 ELISA after IV infusion, indirect measure of ETBR engagement; type: in vivo; conditions: rats, 250 μg/kg IV infusion
Protocol: Plasma concentrations of BQ-788 versus BQ-788-B (COMPOUND 1). […] Briefly, rats (N=4 animals per timepoint) were administered either BQ-788 or the deuterated form, BQ-788-B (COMPOUND 1) at a dose of 250 μg/kg via IV infusion. Plasma samples were collected at various time points and ET-1 ELISA performed. BQ788 and BQ788-B are peptide drugs that are rapidly degraded in plasma and thus drug levels are difficult to detect directly. […] As such, plasma levels of ET-1 are commonly used as an indirect measure of BQ-788 biologic activity.

[3] = target: T2, Recombinant human CXCR4 (Homo sapiens, UniProt P61073); assay: CXCR4 (h) cellular antagonist effect, impedance by dielectric spectroscopy; type: cell-based; conditions: CHO cells, stimulated with 1 nM SDF-1α, 28° C
T2 construct: expressed in transfected cells; host or cells: CHO cells
T2 sequence (P61073 whole entry): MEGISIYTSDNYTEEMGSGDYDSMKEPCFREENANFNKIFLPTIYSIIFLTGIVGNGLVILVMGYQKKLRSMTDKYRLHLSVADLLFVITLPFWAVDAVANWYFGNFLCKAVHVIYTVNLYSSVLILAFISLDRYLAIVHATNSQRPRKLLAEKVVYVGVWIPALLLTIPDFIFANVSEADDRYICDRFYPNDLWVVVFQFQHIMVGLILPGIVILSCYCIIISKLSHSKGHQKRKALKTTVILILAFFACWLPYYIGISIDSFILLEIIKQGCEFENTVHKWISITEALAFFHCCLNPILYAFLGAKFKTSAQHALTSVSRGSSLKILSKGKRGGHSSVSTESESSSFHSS
Protocol: FIGS. 4A and 4B illustrates human (“h”) CXCR inhibitory effects for, A) BQ-788 and B) BQ-788-B (Compound 1), a specifically deuterated ETBR antagonist. Cellular agonist effect was calculated as a % of control response to a known reference agonist for CXCR4 (h), and cellular antagonist effect was calculated as a % inhibition of control reference agonist response for CXCR4.
Determination of CXCR4 inhibitory effect. The inhibitory effect on CXCR4 (h) was determined for BQ-788 (FIG. 4A), and BQ-788-B (COMPOUND 1) (FIG. 4B). Cellular agonist effect was calculated as a % of control response to a known reference agonist for CXCR4 (h), and cellular antagonist effect was calculated as a % inhibition of control reference agonist response for CXCR4. Recombinant human CXCR4 was expressed in CHO cells, and stimulated with 1 nM SDF-1α and incubated at 28° C. Dielectric spectroscopy was used to measure impedance of the cells.

[4] = tested on: bladder cancer tumor cells, MB49-PDIRA-220; assay: Syngeneic bladder cancer murine model, tumor volume; type: in vivo, C57BL/6 mice; conditions: for anti-bladder cancer treatment efficacy (tumor volume): vs control and single agents
Protocol: 6 week old female C57BL/6 mice, n=5 per group, were implanted with bladder cancer tumor cells, MB49-PDIRA-220 at the right flank. When tumors reached from about 50 mm^3-75 mm^3 in volume, mice were separated into 4 treatment groups: (1) dosed with 4 μg of BQ-788-B (Compound 1) intravenously on days 1, 3, 5, 8, 10, 12 and 15 and with 100 μg of an anti-PD-1 agent intraperitoneally on days 1, 4, 9 and 13; (2) dosed with 4 μg of BQ-788-B (Compound 1) intravenously on days 1, 3, 5, 8, 10, 12 and 15; (3) dosed with 100 μg of an anti-PD-1 agent intraperitoneally on days 1, 4, 9 and 13; or (4) untreated control. Tumor volume measurements were taken every two days post treatment.
6 week old female C57BL/6 mice, n=5 per group, were implanted with bladder cancer tumor cells, MB49-PD1RA-220 at the right flank. When tumors reached from about 100 mm^3 in volume, mice were separated into 4 treatment groups: (1) dosed with BQ-788-B (Compound 1) intravenously on days 1, 3, 5, and 8 with 100 μg of an immunotherapeutic agent, namely an anti-PD-1 antibody intraperitoneally on days 1, 4, 9 and 13 (2) dosed with 4 μg of BQ-788-B (Compound 1) intravenously on days 1, 3, 5, and 8 (3) dosed with 100 μg of an anti-PD-1 agent intraperitoneally on days 1, 4, 9 and 13 or (4) untreated control. Tumor volume measurements were taken 3 times per week. The study was terminated on day 8 due to morbidity of control groups.
6 week old female C57BL/6 mice, n=5 per group, were implanted with bladder cancer tumor cells, MB49-PDIRA-220 at the right flank. When tumors reached from about 25 mm^3-50 mm^3 volume, mice were separated into 4 treatment groups: (1) dosed with 4 μg of BQ-788-B (BQ788) intravenously on days 1, 3, 5, and 8 with 100 μg of an anti-PD-1 agent intraperitoneally on days 1, 4, and 9 (2) dosed with 4 μg of BQ-788-B (BQ788) intravenously on days 1, 3, 5, and 8 (3) dosed with 100 μg of an anti-PD-1 agent intraperitoneally on days 1, 4, and 9 or (4) untreated control. Tumor volume measurements were taken 3 times per week. The study was terminated on day 12 due to morbidity of control groups.

[5] = tested on: V600E+ (BRAF mutated) SM1 tumor; assay: Syngeneic melanoma V600E+ (BRAF mutated) SM1 tumor model, tumor volume and IHC; type: in vivo, C57BL/6 mice
Protocol: The syngeneic melanoma model V600E+ (BRAF mutated) SM1 tumor model was used in C57BL/6 mice to assess efficacy of deuterated ETBR antagonists in combination with immunotherapeutics (“B+P”) as compared to a standard treatment, dabrafenib with anti-PD1 (“D+P”). […] In this study 6-8 week old female C57BL/6 mice were inoculated with SM1 tumor fragments (TME* components present). Dosing was initiated when tumors were 150 mm3. The general dosing schemes were as follows: dabrafenib (30 mg/kg daily by oral gavage), immunotherapeutic 10 mg/kg Q4D IP beginning 2 days after dabrafenib), deuterated ETBR antagonist (4 μg administered QOD IV beginning 2 days after dabrafenib). Tumors were measured three times per week, and the study was terminated after 21 days of dosing and IHC analysis of tumors was performed.
TLOs are functionally equivalent to lymph nodes, produce tumor-specific T- and B-cells, and induce long lasting anti-tumor immunity.
FIG. 11 provides table summaries of the results obtained with combination therapies (two- and three-part), TLO formation and efficacy for tumor eradication. The model system tested is as described for FIG. 8. The combinations included dabrafenib+anti-PD1 (“D+P”); dabrafenib+anti-PD1+BQ-788-B (COMPOUND 1) at 0.6 μg (“D+P+B (0.6 μg)”); dabrafenib+anti-PD1+BQ-788-B (COMPOUND 1) at 4.0 μg (“D+P+B (4.0 μg)”); dabrafenib+anti-PD1+BQ-788-B (COMPOUND 1) at 100 μg (“D+P+B (100 μg)”); and anti-PD1+BQ-788-B (COMPOUND 1) at (4.0 μg) (“P+B (4.0 μg)”). […] FIG. 12 presents the efficacy results as a function of tumor volume (mm3).
6 week old female C57BL/6 mice, n=5 per group, were implanted with V600E+ melanoma cancer tumor cells. Once tumors were established, mice were dosed with ETBR antagonists and immune checkpoint inhibitors combination therapy. 21 days post treatment, histological examination was performed, FIG. 20.

[6] = combination with anti-PD1, histology 21 days after treatment

Row | Compound | IC50, ETA (h) inhibitory effect [1] | plasma ET-1 transient peak at [2] | IC50, CXCR4 (h) inhibitory effect [3] | plasma ET-1 prolonged peak out to [2] | plasma ET-1 response relative to BQ-788 [2] | interaction with anti-PD1 ([4]; Example 3) | anti-bladder cancer treatment efficacy (tumor volume) ([4]; Example 3: 4 μg IV days 1,3,5,8,10,12,15 + 100 μg anti-PD-1 IP) | interaction with anti-PD1 ([4]; Example 5) | anti-bladder cancer treatment efficacy (tumor volume) ([4]; Example 5: IV days 1,3,5,8 + 100 μg anti-PD-1 IP, tumors about 100 mm^3 at start) | interaction with anti-PD1 ([4]; Example 6) | anti-bladder cancer treatment efficacy (tumor volume) ([4]; Example 6: 4 μg IV days 1,3,5,8 + 100 μg anti-PD-1 IP days 1,4,9) | CD8+ TIL staining distribution ([5]; BQ-788-B 0.6 μg + immune checkpoint inhibitor + dabrafenib, 21 days) | CD8+ TIL staining distribution ([5]; BQ-788-B 4.0 μg + anti-PD1 + dabrafenib, 21 days) | CD8+ TIL staining distribution ([5]; BQ-788-B 100 μg + anti-PD1 + dabrafenib, 21 days) | interaction with anti-PD1 / anti-oncologic agents ([5]; combination therapy, tumor volume) | lymphocyte infiltration of tumor (CD8+, CD4+, Treg staining) [5, 6] | tertiary lymphoid organ (TLO) formation [5, 6] | tumor outcome (volume, IHC) ([5]; deuterated ETBR antagonist 4 μg QOD IV + anti-PD1 10 mg/kg Q4D IP, 21 days) | tumor outcome (volume) ([5]; dabrafenib 30 mg/kg daily oral gavage + anti-PD1 10 mg/kg Q4D IP, 21 days) | effect of adding dabrafenib to anti-PD1/BQ-788-B combination ([5]; triple combination, tumor volume)
1 | CCCC[C@@H](NC(=O)[C@@H](Cc1cn(C(=O)OC)c2ccccc12)NC(=O)[C@H](CC(C)(C)C)NC(=O)N1[C@H](C)CCC[C@@H]1C)C(=O)O [BQ-788, N-[([2R,6S]-2,6-dimethyl-1-piperidinyl)carbonyl]-4-methyl-L-leucyl-N-[(1R)-1-carboxylatopentyl]-1-[methoxycarbonyl]-D-tryptophanamide, reference compound] | not calculable | about 30 minutes | – | – | – | – | – | – | – | – | – | – | – | – | – | – | – | – | – | –
2 | [2H]CC1CCCC(C[2H])N1C(=O)NC(CC(C)(C)C)C(=O)NC(Cc1cn(C(=O)OC)c2ccccc12)C(=O)NC(CCCC)C(=O)O (stereo not drawn) [BQ-788-B] | not calculable | – | not calculable | about 3 hours | enhanced duration and amplitude of response; also recorded: enhanced plasma ET-1 concentration | synergy | greatest anti-bladder cancer treatment efficacy | synergy | greatest anti-bladder cancer treatment efficacy | synergy | greatest anti-bladder cancer treatment efficacy | diffuse CD8+ TIL staining | peripheral distribution of TILs | peripheral distribution of TILs | synergistic results; also recorded: synergistic activity; also recorded: restores sensitivity to the anti-PD1 antibody | robust infiltration by CD8+ lymphocytes (TILs); also recorded: strong mobilization of lymphocytes to the tumor | most frequently associated with intratumoral TLO formation and tumor reduction; also recorded: induced tertiary lymphoid organ (TLO) formation | tumor shrinkage below baseline; also recorded: tumors had been eradicated leaving only residual adipose tissue; also recorded: eradicated the tumors | – | –
3 | CC(C)(C)c1nc(-c2cccc(NS(=O)(=O)c3c(F)cccc3F)c2F)c(-c2ccnc(N)n2)s1 [dabrafenib, reference compound] | – | – | – | – | – | – | – | – | – | – | – | – | – | – | – | – | – | – | failed to shrink tumors but demonstrated intermediate tumor growth inhibition | impairs efficacy

From patent US12728122B2, “Treatment of urothelial and kidney cancers by use of endothelin B receptor antagonists” (ENB Therapeutics, Inc., priority 2019, dated 2026)
